# Measured values taken from ChEMBL document CHEMBL1201862, “PubChem BioAssay data set” (2004).
# Calls of active or inactive are those of the source.
# What was measured:
# [1] = biological target: Potassium voltage-gated channel subfamily KQT member 2 (Rattus norvegicus, UniProt O88943, W236L); assay: potentiation of rat KCNQ2 current – cell-based, automated electrophysiology, mechanism study for KCNQ2 potentiator project, dose response (AID 2603); format: functional
# [2] = CCR5-tropic HIV-1 fusion blockers – cell-based, CCR5-tropic Env, dose response (AID 2279); format: functional
# Genome polyprotein = Genome polyprotein (dengue virus type 2, UniProt P29990); assay: flavivirus cap methylation enzyme inhibition – biochemical, confirmation dose response, primary screen (AID 588689); format: functional
# Genome polyprotein, sequence (P29990 2492-3391 limits assumed): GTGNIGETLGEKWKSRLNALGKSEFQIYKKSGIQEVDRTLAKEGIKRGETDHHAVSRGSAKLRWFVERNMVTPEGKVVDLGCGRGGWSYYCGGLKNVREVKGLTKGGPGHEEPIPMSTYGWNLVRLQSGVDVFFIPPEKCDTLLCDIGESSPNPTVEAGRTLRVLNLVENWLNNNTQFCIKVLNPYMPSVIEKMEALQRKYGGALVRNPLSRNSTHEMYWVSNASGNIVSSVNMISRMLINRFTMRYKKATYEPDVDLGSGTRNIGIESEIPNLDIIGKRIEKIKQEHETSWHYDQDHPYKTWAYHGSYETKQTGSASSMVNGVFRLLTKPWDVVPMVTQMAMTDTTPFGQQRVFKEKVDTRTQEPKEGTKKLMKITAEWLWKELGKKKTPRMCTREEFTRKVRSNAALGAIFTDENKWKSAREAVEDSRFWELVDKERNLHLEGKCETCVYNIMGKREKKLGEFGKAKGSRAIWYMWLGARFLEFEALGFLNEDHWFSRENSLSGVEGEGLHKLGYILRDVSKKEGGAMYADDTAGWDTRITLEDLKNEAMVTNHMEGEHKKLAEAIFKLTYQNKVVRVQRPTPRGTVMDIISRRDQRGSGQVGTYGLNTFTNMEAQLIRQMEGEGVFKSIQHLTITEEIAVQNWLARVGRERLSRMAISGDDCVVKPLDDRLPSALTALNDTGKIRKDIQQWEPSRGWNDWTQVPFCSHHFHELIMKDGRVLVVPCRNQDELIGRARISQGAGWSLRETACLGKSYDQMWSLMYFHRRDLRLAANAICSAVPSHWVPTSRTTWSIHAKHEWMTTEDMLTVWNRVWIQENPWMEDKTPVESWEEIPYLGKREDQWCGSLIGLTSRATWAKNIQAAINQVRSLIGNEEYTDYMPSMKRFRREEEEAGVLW
# Streptokinase A = biological target: T1, Streptokinase A (Streptococcus pyogenes serotype M1, UniProt P10520); assay: viability-normalized secreted streptokinase activity reduction – plasminogen activation absorbance, OD405, dose response (AID 1914); format: functional, Streptococcus pyogenes M1 GAS;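 also: secreted streptokinase activity via plasminogen activation per viability signal from cell pellet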
# T1 sequence (P10520 whole entry): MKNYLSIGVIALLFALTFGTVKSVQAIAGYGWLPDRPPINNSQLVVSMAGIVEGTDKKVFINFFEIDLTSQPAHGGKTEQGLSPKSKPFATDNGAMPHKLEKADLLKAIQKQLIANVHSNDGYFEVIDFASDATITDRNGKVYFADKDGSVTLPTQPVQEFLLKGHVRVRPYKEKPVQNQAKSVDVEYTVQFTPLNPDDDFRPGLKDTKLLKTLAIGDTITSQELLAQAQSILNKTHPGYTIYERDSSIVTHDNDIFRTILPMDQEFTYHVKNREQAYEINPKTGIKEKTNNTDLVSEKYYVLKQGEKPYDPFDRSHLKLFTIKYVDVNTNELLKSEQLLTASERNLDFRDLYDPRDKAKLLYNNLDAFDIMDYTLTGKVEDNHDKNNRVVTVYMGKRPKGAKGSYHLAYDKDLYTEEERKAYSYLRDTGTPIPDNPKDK
# [3] = fluconazole-exposed Candida albicans growth modulators – fluorescence, retest, confirmation (AID 2467); format: functional, cell-based
# Streptococcus = assay: GAS UMAA2166 growth inhibition – luminescence, BacTiterGlo, counter-screen for streptokinase expression inhibitor project, dose response (AID 1915); format: functional, organism-based;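 also: potency for reduction of bacterial viability or growth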
# [4] = NIH-3T3 fibroblast cytotoxicity, dose response, cytotoxicity control, cell-based, fluorescence, Alamar Blue, secondary assay (AID 2327); format: functional;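 also: NIH-3T3 mouse fibroblasts cultured with fluconazole at 8 µg/mL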
# Aminopeptidase N = biological target: T2, Aminopeptidase N (Plasmodium falciparum FcB1/Columbia, UniProt O96935); assay: malaria alanyl aminopeptidase activity blockers – biochemical, fluorogenic H-Leu-NHMec substrate, 1536-well (AID 1445); set-up: species or system Plasmodium falciparum 3D7, 3D7
# T2 sequence (O96935 whole entry): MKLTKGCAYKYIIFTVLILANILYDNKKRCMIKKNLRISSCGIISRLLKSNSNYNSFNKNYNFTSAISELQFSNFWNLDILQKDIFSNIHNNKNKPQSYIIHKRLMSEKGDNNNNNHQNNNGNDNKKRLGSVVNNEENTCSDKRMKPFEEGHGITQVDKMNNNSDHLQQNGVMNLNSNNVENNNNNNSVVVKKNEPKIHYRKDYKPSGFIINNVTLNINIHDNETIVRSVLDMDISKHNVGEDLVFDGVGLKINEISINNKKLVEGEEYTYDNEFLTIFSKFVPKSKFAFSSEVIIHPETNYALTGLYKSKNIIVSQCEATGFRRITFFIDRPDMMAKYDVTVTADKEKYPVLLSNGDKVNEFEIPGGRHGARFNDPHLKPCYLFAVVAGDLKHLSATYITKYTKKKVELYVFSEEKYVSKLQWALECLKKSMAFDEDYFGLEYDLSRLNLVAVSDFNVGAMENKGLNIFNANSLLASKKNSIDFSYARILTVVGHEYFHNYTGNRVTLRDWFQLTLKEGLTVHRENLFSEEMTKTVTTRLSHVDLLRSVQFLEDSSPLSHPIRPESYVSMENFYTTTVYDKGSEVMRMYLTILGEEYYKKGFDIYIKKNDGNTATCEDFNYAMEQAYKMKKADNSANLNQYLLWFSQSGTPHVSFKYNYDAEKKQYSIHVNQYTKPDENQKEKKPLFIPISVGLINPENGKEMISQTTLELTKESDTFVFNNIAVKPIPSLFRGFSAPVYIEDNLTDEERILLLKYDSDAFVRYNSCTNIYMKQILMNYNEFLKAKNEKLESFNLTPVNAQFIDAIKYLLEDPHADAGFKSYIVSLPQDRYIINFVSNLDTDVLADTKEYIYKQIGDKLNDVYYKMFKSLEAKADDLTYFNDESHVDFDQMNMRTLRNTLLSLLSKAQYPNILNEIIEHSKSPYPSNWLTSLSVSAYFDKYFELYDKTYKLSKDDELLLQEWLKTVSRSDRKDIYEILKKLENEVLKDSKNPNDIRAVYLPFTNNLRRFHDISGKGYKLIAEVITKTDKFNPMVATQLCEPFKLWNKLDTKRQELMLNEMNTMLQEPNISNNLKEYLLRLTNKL
# [5] = test system: Streptococcus sp. 'group A'; assay: Streptococcus pyogenes SK(-)GAS viability under kanamycin – luminescence, BacTiterGlo, confirmation, counter-screen for streptokinase expression inhibitor project, dose response (AID 1900); format: functional, organism-based
# [6] = mitochondrial function rescue without frataxin homolog – Friedreich's ataxia, plus single-dose screen, dose response (AID 1465); format: functional;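 also: yeast depleted of Yfh1p frataxin homolog grown on glycerol needing respiration; WST-1 tetrazolium dye reduction as measure of cellular dehydrogenase metabolic activity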
# [7] = biological target: DNA dC->dU-editing enzyme APOBEC-3A (Homo sapiens, UniProt P31941); assay: Dose Response confirmation of small molecule APOBEC3A DNA Deaminase Inhibitors via a fluorescence-based single-stranded DNA deaminase assay. [Related pubchem assays (depositor defined):AID493011, AID493024]; format: functional
# DNA dC->dU-editing enzyme APOBEC-3A, sequence (P31941 whole entry): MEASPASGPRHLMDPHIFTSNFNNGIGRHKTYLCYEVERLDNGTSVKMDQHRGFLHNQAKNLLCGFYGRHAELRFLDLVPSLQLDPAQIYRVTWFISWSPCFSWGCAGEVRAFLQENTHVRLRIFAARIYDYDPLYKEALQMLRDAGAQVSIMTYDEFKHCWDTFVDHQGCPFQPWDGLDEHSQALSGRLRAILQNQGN
# [8] = biological target: DNA dC->dU-editing enzyme APOBEC-3G (Homo sapiens, UniProt Q9HC16); format: functional;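 also: Dose-response counterscreen measuring inhibition of APOBEC3G DNA deaminase activity, run while confirming APOBEC3A inhibitors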
# DNA dC->dU-editing enzyme APOBEC-3G, sequence (Q9HC16 whole entry): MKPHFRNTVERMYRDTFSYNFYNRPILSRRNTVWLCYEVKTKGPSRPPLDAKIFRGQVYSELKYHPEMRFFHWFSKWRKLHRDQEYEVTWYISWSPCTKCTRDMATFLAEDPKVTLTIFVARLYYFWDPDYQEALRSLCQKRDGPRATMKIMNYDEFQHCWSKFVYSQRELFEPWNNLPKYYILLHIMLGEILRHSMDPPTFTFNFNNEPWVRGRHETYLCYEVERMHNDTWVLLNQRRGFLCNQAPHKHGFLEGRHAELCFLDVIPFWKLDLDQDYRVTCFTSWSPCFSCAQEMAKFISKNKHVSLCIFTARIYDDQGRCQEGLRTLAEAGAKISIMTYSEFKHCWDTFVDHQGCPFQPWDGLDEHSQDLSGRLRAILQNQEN
# Bcl-2-like protein 10 = biological target: T3, Bcl-2-like protein 10 (Homo sapiens, UniProt Q9HD36); assay: Concentration-response of Bcl-B inhibitors by biochemical FP with TR3 (AID 1243); format: functional
# T3 sequence (Q9HD36 whole entry): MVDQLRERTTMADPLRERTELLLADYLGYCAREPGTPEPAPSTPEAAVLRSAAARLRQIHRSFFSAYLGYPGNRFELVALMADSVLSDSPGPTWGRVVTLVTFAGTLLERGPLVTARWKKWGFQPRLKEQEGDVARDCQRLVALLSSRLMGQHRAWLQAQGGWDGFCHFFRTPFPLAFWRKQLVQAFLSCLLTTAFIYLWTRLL
# [9] = biological target: Sphingosine 1-phosphate receptor 2 (Homo sapiens, UniProt O95136); assay: Dose Response Cell Based Assay for Agonists of the S1P2 Receptor of Purchased Analogues. [Related pubchem assays: 729, 843, 854, 736 ]; format: functional
# Sphingosine 1-phosphate receptor 2, sequence (O95136 whole entry): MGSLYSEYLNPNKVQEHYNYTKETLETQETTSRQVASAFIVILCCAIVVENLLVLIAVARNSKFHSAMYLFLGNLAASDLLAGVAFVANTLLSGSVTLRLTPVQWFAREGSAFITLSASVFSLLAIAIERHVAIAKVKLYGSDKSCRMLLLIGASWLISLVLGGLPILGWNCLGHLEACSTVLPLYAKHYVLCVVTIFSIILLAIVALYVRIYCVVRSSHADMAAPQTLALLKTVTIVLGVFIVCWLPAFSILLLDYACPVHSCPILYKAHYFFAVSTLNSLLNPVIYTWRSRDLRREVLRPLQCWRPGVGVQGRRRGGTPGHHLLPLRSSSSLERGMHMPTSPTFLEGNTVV
# [10] = Luminescence Cell-Based Dose Confirmation HTS to Identify Inhibitors of Polyadenylation.; format: functional
# [11] = biological target: T4, Neuropeptide Y receptor type 2 (Homo sapiens, UniProt P49146); format: functional, cell-based;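 also: HEK293 cells expressing the receptor and a CNG channel; stimulus was NPY near EC95 followed by isoproterenol to raise cAMP; antagonist potency measured as restoring cAMP signal that NPY suppresses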
# T4 sequence (P49146 whole entry): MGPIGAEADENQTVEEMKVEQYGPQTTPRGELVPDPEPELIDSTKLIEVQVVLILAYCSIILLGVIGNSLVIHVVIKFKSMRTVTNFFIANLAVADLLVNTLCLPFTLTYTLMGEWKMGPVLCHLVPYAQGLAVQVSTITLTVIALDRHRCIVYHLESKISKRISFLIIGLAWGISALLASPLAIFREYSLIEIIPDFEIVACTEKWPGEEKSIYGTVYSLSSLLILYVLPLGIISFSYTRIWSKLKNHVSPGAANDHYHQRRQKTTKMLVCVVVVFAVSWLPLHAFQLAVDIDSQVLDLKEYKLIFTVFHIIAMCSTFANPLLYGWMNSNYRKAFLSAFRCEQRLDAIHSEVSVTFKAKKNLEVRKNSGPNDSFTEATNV
# [12] = biological target: T5, Neuropeptide Y receptor type 1 (Homo sapiens, UniProt P25929); format: functional;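 also: HEK293 cells with a CNG channel challenged with NPY then isoproterenol; potency as antagonist that reverses NPY suppression of cAMP signal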
# T5 sequence (P25929 whole entry): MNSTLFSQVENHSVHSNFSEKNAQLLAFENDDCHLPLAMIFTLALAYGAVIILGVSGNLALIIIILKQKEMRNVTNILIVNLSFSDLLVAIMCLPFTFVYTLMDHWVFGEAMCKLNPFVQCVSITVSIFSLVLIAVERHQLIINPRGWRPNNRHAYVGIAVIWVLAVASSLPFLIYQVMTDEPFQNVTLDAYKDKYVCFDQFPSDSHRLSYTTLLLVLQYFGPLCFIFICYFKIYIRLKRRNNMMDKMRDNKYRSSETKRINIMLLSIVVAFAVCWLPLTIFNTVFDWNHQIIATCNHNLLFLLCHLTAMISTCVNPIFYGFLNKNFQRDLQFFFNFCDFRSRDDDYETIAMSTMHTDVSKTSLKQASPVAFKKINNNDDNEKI
# [13] = Luminescence Cell-Based Dose Response to Identify Activators of Luciferase Translation or Activity in H4-C Neuroglioblastoma Cells. [Related pubchem assays: 1829 (Project Summary), 1814 (Primary HTS)]; format: functional
# [14] = Luminescence Cell-Based Dose Response to Identify Activators of 5'UTR Stem-Loop Driven Prion Protein mRNA Translation in H4-C Neuroglioblastoma Cells. [Related pubchem assays: 1829 (Project Summary), 1814 (Primary HTS)]; format: functional
# [15] = Luminescence Cell-Based Dose Confirmation HTS to Identify Activators of 5'UTR Stem-Loop Driven Alpha-Synuclein mRNA Translation in H4 Neuroglioblastoma Cells. [Related pubchem assays: 1829 (Project Summary), 1814 (Primary HTS)]; format: functional
# [16] = Luminescence Cell-Based Dose Confirmation to Identify Activators of 5'UTR Stem-Loop Driven Alpha-Synuclein mRNA Translation in H4 Neuroglioblastoma Cells. [Related pubchem assays: 1829 (Project Summary), 1814 (Primary HTS)]; format: functional
# H4 = assay: Luminescence Cell-Based Dose Response HTS to Identify Activators of 5'UTR Stem-Loop Driven Prion Protein mRNA Translation in H4 Neuroglioblastoma Cells. [Related pubchem assays: 1829 (Project Summary), 1814 (Primary HTS)]; format: functional; conditions: Homo sapiens
# Potassium voltage-gated channel subfamily KQT member 2, sequence (O88943 whole entry W236L, the tested form may be a part): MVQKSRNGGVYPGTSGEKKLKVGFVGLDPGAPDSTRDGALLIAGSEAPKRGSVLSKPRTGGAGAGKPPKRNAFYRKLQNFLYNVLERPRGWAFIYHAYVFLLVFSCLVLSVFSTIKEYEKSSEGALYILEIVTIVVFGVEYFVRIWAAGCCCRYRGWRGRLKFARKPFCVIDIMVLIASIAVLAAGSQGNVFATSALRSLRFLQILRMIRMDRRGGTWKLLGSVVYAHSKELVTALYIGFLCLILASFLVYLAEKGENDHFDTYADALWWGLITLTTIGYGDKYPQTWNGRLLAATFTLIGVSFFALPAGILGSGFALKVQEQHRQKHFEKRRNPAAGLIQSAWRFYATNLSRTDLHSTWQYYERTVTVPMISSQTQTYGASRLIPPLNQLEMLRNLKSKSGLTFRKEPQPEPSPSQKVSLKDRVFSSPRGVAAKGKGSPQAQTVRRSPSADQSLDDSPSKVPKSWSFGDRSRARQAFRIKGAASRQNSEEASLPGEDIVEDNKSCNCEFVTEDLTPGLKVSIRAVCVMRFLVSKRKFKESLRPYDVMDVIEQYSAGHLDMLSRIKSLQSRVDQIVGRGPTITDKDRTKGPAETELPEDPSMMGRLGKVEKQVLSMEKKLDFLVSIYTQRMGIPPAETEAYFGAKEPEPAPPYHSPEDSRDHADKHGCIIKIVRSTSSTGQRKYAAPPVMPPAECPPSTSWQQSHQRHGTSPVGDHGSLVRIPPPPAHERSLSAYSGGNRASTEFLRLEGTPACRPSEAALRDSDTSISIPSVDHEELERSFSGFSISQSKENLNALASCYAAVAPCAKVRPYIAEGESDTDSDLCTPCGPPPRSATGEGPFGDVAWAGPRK
structure (smiles),measurement,setting,value
O=C(Nc1ccc(Oc2ccc3ccccc3c2)cc1)c1ccco1,EC50,[1],12 µM (active)
CC1(C)CC(=O)C2=C(C1)c1c(ccc3ccccc13)NC2c1cc([N+](=O)[O-])cc([N+](=O)[O-])c1O (stereo not given),IC50,[2],29.9 µM (active)
same,IC50,Genome polyprotein,25.3 µM (active)
same,EC50,Streptokinase A,> 150 µM (not active)
same,EC50,[3],0.622 µM (active)
same,EC50,Streptococcus,> 150 µM (not active)
same,EC50,[4],106 µM (active)
same,IC50,Aminopeptidase N,29.4 µM (active)
same,EC50,[5],4.43 µM (active)
C[n+]1cc(C(=O)N2CCCCC2)ccc1/C=C/c1c[nH]c2ccccc12,EC50,[6],> 100 µM (active)
same,IC50,[7],2.44 µM (active)
same,IC50,[8],2.7 µM (active)
CC(=O)c1cc(C#N)c(SCC(=O)c2ccc(O)c(O)c2)nc1C,EC50,Bcl-2-like protein 10,11 µM (active)
Cc1cc(C(=O)CN(C)CC(=O)N2CCOCC2)c(C)n1Cc1ccccc1,EC50,[9],> 30 µM (not active)
CC(C)CC1Nc2ncnc(N3CCN(c4ccccc4)CC3)c2N(Cc2ccccc2)C1=O (stereo not given),EC50,[10],> 120 µM (not active)
Cc1ccc(N=C(S)N=C(N)Nc2nc(C)c3cc(C)ccc3n2)c(C)c1,IC50,[11],22.9 µM (not active)
same,IC50,[12],> 35 µM (not active)
Cc1ccc(Nc2nc3ccccc3[nH]2)nc1,EC50,[13],0.368 µM (active)
same,EC50,[14],0.279 µM (active)
same,EC50,Streptokinase A,> 150 µM (not active)
same,EC50,Streptococcus,> 150 µM (not active)
same,EC50,[15],< 0.1 µM (active)
same,EC50,[5],5.49 µM (active)
same,EC50,[16],0.601 µM (active)
same,EC50,H4,43.1 µM (active)
